Assay: mn = molality of the nth substance listed, in mol/kg
Conditions: 101.33 kPa, Liquid; for viscosity: Capillary tube (Ostwald / Ubbelohde) method; for speed of sound: Sing-around technique in a fixed-path interferometer; for mass density: Vibrating tube method

NCC(=O)O [2-aminoacetic acid] + O
Conditions	mass density [kg/m3]	speed of sound [m/s]	viscosity [mPa·s]
293.15 K, m1 = 0.05	999.804	1486.2	1.013
293.15 K, m1 = 0.0999	1001.4	1488.6	1.022
293.15 K, m1 = 0.1499	1002.99	1491.1	1.029
293.15 K, m1 = 0.2001	1004.57	1493.6	1.036
293.15 K, m1 = 0.2504	1006.14	1496	1.039
293.15 K, m1 = 0.2999	1007.67	1498.4	1.048
293.15 K, m1 = 0.3501	1009.21	1500.8	1.056
293.15 K, m1 = 0.3998	1010.72	1503.2	1.06
298.15 K, m1 = 0.05	–	1500.3	0.8991
298.15 K, m1 = 0.0999	1000.21	1502.7	0.908
298.15 K, m1 = 0.1499	1001.78	1505.1	0.9168
298.15 K, m1 = 0.2001	1003.34	1507.5	0.9232
298.15 K, m1 = 0.2504	1004.9	1510	0.9281
298.15 K, m1 = 0.2999	1006.41	1512.3	0.933
298.15 K, m1 = 0.3501	1007.93	1514.7	0.9379
298.15 K, m1 = 0.3998	1009.43	1517	0.946
303.15 K, m1 = 0.05	–	1512.6	0.8077
303.15 K, m1 = 0.0999	998.773	1514.9	0.8177
303.15 K, m1 = 0.1499	1000.33	1517.3	0.8258
303.15 K, m1 = 0.2001	1001.88	1519.6	0.8319
303.15 K, m1 = 0.2504	1003.42	1522	0.8398
303.15 K, m1 = 0.2999	1004.92	1524.2	0.8434
303.15 K, m1 = 0.3501	1006.43	1526.5	0.8511
303.15 K, m1 = 0.3998	1007.92	1528.8	0.8533
308.15 K, m1 = 0.05	995.577	1523.1	0.7296
308.15 K, m1 = 0.0999	997.132	1525.4	0.7366
308.15 K, m1 = 0.1499	998.677	1527.7	0.7404
308.15 K, m1 = 0.2001	1000.22	1530	0.7474
308.15 K, m1 = 0.2504	1001.75	1532.2	0.7518
308.15 K, m1 = 0.2999	1003.24	1534.4	0.7578
308.15 K, m1 = 0.3501	1004.74	1536.7	0.7641
308.15 K, m1 = 0.3998	1006.21	1538.9	0.7679
313.15 K, m1 = 0.05	–	1532.1	0.6609
313.15 K, m1 = 0.0999	–	1534.3	0.6662
313.15 K, m1 = 0.1499	–	1536.5	0.6686
313.15 K, m1 = 0.2001	–	1538.7	0.6721
313.15 K, m1 = 0.2504	999.881	1540.9	0.6759
313.15 K, m1 = 0.2999	1001.36	1543.1	0.6798
313.15 K, m1 = 0.3501	1002.86	1545.3	0.6851
313.15 K, m1 = 0.3998	1004.33	1547.5	0.6881

CCCCCCCCCCCCOS(=O)(=O)[O-].[Na+] [sodium dodecyl sulfate] + O
Conditions	mass density [kg/m3]	speed of sound [m/s]	viscosity [mPa·s]
293.15 K, m1 = 0.0001	998.198	1482.9	1.014
293.15 K, m1 = 0.0003	998.209	1482.9	1.014
293.15 K, m1 = 0.0005	998.221	1483	1.016
293.15 K, m1 = 0.002	998.31	1483.2	1.02
293.15 K, m1 = 0.004	998.425	1483.5	1.02
293.15 K, m1 = 0.006	998.538	1483.7	1.024
293.15 K, m1 = 0.008	998.647	1484	1.026
293.15 K, m1 = 0.01	998.75	1484.2	1.027
293.15 K, m1 = 0.012	998.851	1484.5	1.029
293.15 K, m1 = 0.014	998.949	1484.6	1.034
293.15 K, m1 = 0.016	999.048	1484.8	1.036
293.15 K, m1 = 0.018	999.145	1484.9	1.04
293.15 K, m1 = 0.02	999.237	1485	1.042
293.15 K, m1 = 0.022	999.338	1485.2	1.047
293.15 K, m1 = 0.024	999.426	1485.3	1.052
298.15 K, m1 = 0.0001	997.034	1497	0.895
298.15 K, m1 = 0.0003	997.045	1497	0.8952
298.15 K, m1 = 0.0005	997.057	1497.1	0.8955
298.15 K, m1 = 0.002	997.144	1497.3	0.8963
298.15 K, m1 = 0.004	997.255	1497.6	0.8969
298.15 K, m1 = 0.006	997.365	1497.8	0.8976
298.15 K, m1 = 0.008	997.472	1498.1	0.8981
298.15 K, m1 = 0.01	997.569	1498.4	0.899
298.15 K, m1 = 0.012	997.67	1498.6	0.9008
298.15 K, m1 = 0.014	997.768	1498.7	0.9073
298.15 K, m1 = 0.016	997.867	1498.9	0.9091
298.15 K, m1 = 0.018	997.957	1499	0.9114
298.15 K, m1 = 0.02	998.048	1499.1	0.9136
298.15 K, m1 = 0.022	998.142	1499.3	0.9191
298.15 K, m1 = 0.024	998.232	1499.4	0.9211
303.15 K, m1 = 0.0001	995.633	1509.3	0.801
303.15 K, m1 = 0.0003	995.644	1509.4	0.8015
303.15 K, m1 = 0.0005	995.655	1509.4	0.8018
303.15 K, m1 = 0.002	995.74	1509.6	0.8024
303.15 K, m1 = 0.004	995.848	1509.9	0.8028
303.15 K, m1 = 0.006	995.955	1510.2	0.8032
303.15 K, m1 = 0.008	996.058	1510.4	0.8037
303.15 K, m1 = 0.01	996.155	1510.7	0.8039
303.15 K, m1 = 0.012	996.252	1510.8	0.8054
303.15 K, m1 = 0.014	996.348	1511	0.8085
303.15 K, m1 = 0.016	996.441	1511.2	0.8114
303.15 K, m1 = 0.018	996.536	1511.3	0.8135
303.15 K, m1 = 0.02	996.624	1511.4	0.8161
303.15 K, m1 = 0.022	996.718	1511.6	0.8193
303.15 K, m1 = 0.024	996.807	1511.7	0.8206
308.15 K, m1 = 0.0001	994.016	1520	0.7228
308.15 K, m1 = 0.0003	994.026	1520	0.7232
308.15 K, m1 = 0.0005	994.037	1520	0.7236
308.15 K, m1 = 0.002	994.12	1520.2	0.7241
308.15 K, m1 = 0.004	994.224	1520.5	0.7245
308.15 K, m1 = 0.006	994.327	1520.8	0.725
308.15 K, m1 = 0.008	994.429	1521	0.7253
308.15 K, m1 = 0.01	994.524	1521.3	0.7259
308.15 K, m1 = 0.012	994.619	1521.5	0.7264
308.15 K, m1 = 0.014	994.715	1521.6	0.7279
308.15 K, m1 = 0.016	994.806	1521.8	0.73
308.15 K, m1 = 0.018	994.898	1521.9	0.7345
308.15 K, m1 = 0.02	994.988	1522	0.7388
308.15 K, m1 = 0.022	995.076	1522.2	0.7422
308.15 K, m1 = 0.024	995.164	1522.3	0.7465
313.15 K, m1 = 0.0001	992.2	1529	0.6564
313.15 K, m1 = 0.0003	992.21	1529	0.6566
313.15 K, m1 = 0.0005	992.22	1529.1	0.657
313.15 K, m1 = 0.002	992.299	1529.3	0.6576
313.15 K, m1 = 0.004	992.402	1529.5	0.6585
313.15 K, m1 = 0.006	992.5	1529.8	0.6599
313.15 K, m1 = 0.008	992.601	1530.1	0.6616
313.15 K, m1 = 0.01	992.696	1530.3	0.6628
313.15 K, m1 = 0.012	992.789	1530.5	0.6646
313.15 K, m1 = 0.014	992.884	1530.7	0.6667
313.15 K, m1 = 0.016	992.975	1530.8	0.6689
313.15 K, m1 = 0.018	993.061	1530.9	0.6718
313.15 K, m1 = 0.02	993.153	1531.1	0.6747
313.15 K, m1 = 0.022	993.239	1531.2	0.6775
313.15 K, m1 = 0.024	993.323	1531.3	0.6794

Reference: the NIST ThermoML archive (doi:10.1016/j.jct.2013.11.022)
